# Measurements taken from patent publication US20030072824A1, “Ume extract having medicinal effects and compositions containing the same” (priority 1998, published 2003).
# Assay: Anti-oxidation action, DPPH radical trapping (Example 2)
# Settings: absorbance at 517 nm reduced to half, 30 minutes
# Description: An ethanol solution of a stable radical 1,1-diphenyl-2-picryl-hydrazyl (DPPH) has an absorption at 517 nm in blue. When a radical trapping substance is added to this solution, the solution is discolored depending on the amount of the trapping substance added. This phenomenon was utilized in this method. First, 1 ml of ethanol, 1 ml of an ethanol solution of the extract (concentration: 0 to 100 μg/ml), 2 ml of 0.2 M acetic acid buffer solution (pH 5.5) and 1 ml of DPPH solution (2.0×10^−7 mol/ml ethanol solution) were mixed, and the mixture was allowed to stand for 30 minutes. Then, the absorbance of this mixed solution was determined at 517 nm. On the other hand, a mixture solution substituting 1 ml of ethanol for the DPPH solution was used as a blank, and the absorbance of this mixture solution was determined at 517 nm in the same manner as the above. Then, the amount of the extract required to reduce the absorbance to half was calculated, and this was used as an indicator of anti-oxidation. As comparative examples, α-tocopherol and green tea were used in place of the extract, and the anti-oxidation power thereof was investigated.
structure (smiles),measurement,value
Cc1c(C)c2c(c(C)c1O)CC[C@@](C)(CCC[C@H](C)CCC[C@H](C)CCCC(C)C)O2 [α-tocopherol],Anti-oxidation power: the amount required to trap 1.0 × 10^−7 mol DPPH,21 μg
